Entries after “also recorded” stand apart in the source; their conditions may differ. Like-named read-outs stand apart in the source and are kept apart here.
Legend:
[1] = system: Arabidopsis etiolated hypocotyls; test: Hypocotyl growth measurements of etiolated seedlings; type: in vivo; settings: for IC50: Arabidopsis thaliana; for hypocotyl growth response of prc1-1 mutant: CESA6 mutant prc1-1, 8 μM CESTRIN or 4 nM isoxaben, lower degree than WT Col-0
Description: For growth analysis, seedlings were germinated on AGM containing the chemicals CESTRIN or isoxaben solubilized in DMSO and grown as described above. When the experiment was complete, the plates were scanned using a flatbed scanner (Epson Perfection V300) and hypocotyl lengths were measured using the segmented line tool in the image analysis software, ImageJ (Rasband et al., 1997-2014). Statistical analyses were carried out using the statistical package, R (R Core Team, 2012).

[2] = system: tubulin; test: MT polymerization assay (in vitro, OD of polymerized tubulin); type: biochemical; settings: 15 μM
Description: The MT polymerization data was obtained using a polymerization assay kit (Cytoskeleton, Inc. Denver Colo.), employing OD measurements of polymerized tubulin as previously described (Shelanski et al., 1973; Lee and Timasheff, 1977).

[3] = system: Schizosaccharomyces pombe; test: Yeast growth on solid YPD containing the chemical; type: cell-based; settings: 5 days
Description: Single colonies of Saccharomyces cerevisiae-Y2H Gold and Schizosaccharomyces pombe were grown in liquid yeast extract-peptone-dextrose (YPD) media (10 g yeast extract, 20 g peptone, and 20 g glucose per 1 L of media, pH 7), at 30° C. for 24 hours. Yeast cultures were transferred to 3 mL of YPD to grow until an OD of 0.7 was reached. Ten μL of liquid YPD containing yeast at an OD 0.7 were placed onto solid YPD (10 g yeast extract, 20 g peptone 20 g glucose and 11 g bacto-agar per 1 L of media, pH 7) in a 6 well plate containing the chemicals. Four serial dilutions (1:10) were spotted per well. Plates were incubated at 30° C. for 3 days for Saccharomyces cerevisiae-Y2H Gold and 5 days for Schizosaccharomyces pombe and imaged with a flatbed scanner.

[4] = system: Phytophtora capsici; test: Phytophthora growth in corn agar media; type: cell-based; settings: 3 weeks in supplemented media
Description: Phytophtora capsici inoculates were grown in corn agar media supplemented either with DMSO or different concentrations of CESTRIN. After 3 weeks cultures were imaged using flatbed scanner.

[5] = system: GFP-KOR1; settings: CESTRIN treatment; control average 220 nm/min
[6] = system: cellulose content in Arabidopsis etiolated seedlings; test: Cellulose content of etiolated hypocotyls (modified Updegraff method, Anthrone assay); type: in vivo, Arabidopsis thaliana
Description: Etiolated WT Col-0 Arabidopsis thaliana seedlings were grown on AGM containing CESTRIN as described above. Hypocotyls were harvested after 8 days of growth. Cell wall materials were isolated into alcohol insoluble residues (AIR) (Gunl et al., 2010) and cellulose content was estimated using a modified Updegraff method (Updegraff, 1969). Briefly, insoluble trifluoroacetic acid hydrolyzed AIR pellets were quantified using the Anthrone assay as described earlier Viles & Silverman (1949) and Dische (1962).

[7] = system: E. coli; test: Bacterial growth in LB media containing the chemical; type: cell-based; settings: OD over 8 hours
Description: Two mL of Luria-Bertani (LB) media (10 g tryptone, 5 g yeast extract, and 10 g NaCl, pH 7) were inoculated with a single colony of TOP 10 cells and incubated overnight at 37° C. Thirty μL of this culture was then used to inoculate 3 mL of LB media containing the chemical. The OD was measured every 30 minutes over 8 hours using a spectrometer.

[8] = system: 3×Ypet-POM2/CSI1
[9] = system: microtubules (TUB-GFP, RFP-TUA5), EB1-GFP, Talin-GFP, CESA6-YFP; test: Cytoskeleton and CESA marker localization in etiolated hypocotyls (microtubules, EB1, actin, CESA6); type: cell-based, Arabidopsis
Description: (§1) Transgenic lines expressing MAN-YFP (Nebenfuhr et al., 1999), HDEL-GFP (Nelson et al., 2007), VAMP711-YFP (Geldner et al., 2009), NTPP-RFP (Rosado et al.), THE1-GFP (Hematy et al., 2007), CLC-GFP (Konopka et al., 2008), VHA-RFP (Dettmer et al., 2006), VTI12-YFP (Geldner et al., 2009), CFP-SYP61 (Robert et al., 2008), sec-GFP (Goh et al., 2007), CESA6-YFP (Paredez et al., 2006), TUB-GFP (Nakamura et al., 2004), EB1-GFP (Bisgrove et al., 2008) and TALIN-GFP ((Mathur et al., 1999) were used. In addition, the mutant ixr1-1 (Scheible et al., 2001) and prc1-1 (Desnos et al., 1996) were used.
(§2) Confocal images for CFP-SYP61-×CESA3-GFP were obtained using a Leica SP5 microscope using a 63× water objective employing dual channel sequential line scanning. Fluorescent markers were excited at 442 nm (CFP) and 488 nm (GFP). Additional confocal images were obtained using a Zeiss 710 equipped with a 63× oil and a 40× water objective. A 561 nm diode laser was used for propidium iodide (PI, Sigma) and RFP, a 488 nm for GFP, a 514 nm for YFP, and a 405 nm for CFP. Image analysis was performed using a combination of software tools: ImageJ software (version 1.36b; http://rsbweb.nih.gov/ij/), Image Pro Plus (Media Cybernetics, Rockville, Md.), and Imaris (Bitplane, Saint Paul, Minn.).

[10] = system: ER, Golgi, TGN, early endosomes, vacuole, CLC2-GFP, Theseus-GFP, sec-GFP markers; test: Specificity: organelle markers and their subcellular localizations in etiolated hypocotyls; type: cell-based, Arabidopsis
Description: as §1
as §2, with “Minn.). […]” for “Minn.).”

[11] = system: GFP-CESA3 and CFP-SYP61 compartments; test: Colocalization of GFP-CESA3 and CFP-SYP61 compartments, confocal microscopy; type: cell-based, Arabidopsis; settings: versus DMSO; p=0.0013, t-test
Description: as §2
CSCs are enriched in SYP61 associated compartments upon CESTRIN treatment. The apparent redistribution of CSCs in the cell cortex prompted us to further investigate the identity of CESTRIN bodies. Previous studies have shown that CSCs are partially colocalized with SYP61/VHA-a1 in early endosome/TGN compartments (Crowell et al., 2009; Gutierrez et al., 2009). The presence of CESAs in SYP61 vesicles has been established by proteomic analysis (Drakakaki et al., 2012). […] As previously shown, both SYP61 and SYP41/42 partially overlap with CESA6 under mock treatment, however only SYP61 remains partially colocalized after mannitol treatment (Gutierrez et al., 2009). […]

[12] = system: GFP-CESA3 (cellulose synthase complexes, CSCs); settings: 2-hour CESTRIN treatment (15 μM); control 218 nm/min

## Cc1cc(C(F)(F)F)cc(NNc2c([N+](=O)[O-])cc(C(F)(F)F)cc2[N+](=O)[O-])n1 [CESTRIN, 1-[2,6-dinitro-4-(trifluoromethyl)phenyl]-2-[6-methyl-4-(trifluoromethyl)pyridin-2-yl]hydrazine]
[1]; read-out: estimated IC50, anisotropic cell growth
  IC50: 4.9 µM
[1]; read-out: half maximal inhibitory concentration (IC50), growth inhibition of hypocotyls
  IC50: 4.85 µM
[1]
  hypocotyl growth response of prc1-1 mutant: showed sensitivity
[1]; WT Col-0, 8 μM CESTRIN vs DMSO, P=0.001
  reduction of hypocotyl growth of WT Col-0: 80%
[1]; isoxaben-resistant CESA3 mutant ixr1-1, 8 μM CESTRIN vs DMSO, n=16
  reduction of hypocotyl growth of ixr1-1: 62%
[2]
  in-vitro polymerization of tubulin: not affected; also recorded: does not inhibit in vitro tubulin polymerization
[3]
  growth of yeast: inhibited
[4]
  Phytophthora capsici growth: completely inhibited
[5]
  mean velocity of GFP-KOR1 labelled particles: ~60 nm/min
[6]; 9 μM, etiolated seedlings, 8 days, DMSO 103.7 ± 6.4
  Cellulose content, Hypocotyl: 75.3 ± 2.7 μg/mg AIR
[6]; hypocotyls grown on 9 μM CESTRIN
  reduction in cellulose compared to control seedlings: ~30%
[7]
  effect on proliferation of bacteria: no effect on their proliferation was observed
[8]; 2 hours of CESTRIN treatment
  localization of 3×Ypet-POM2: localized to the cytoplasm
[8]; after 2 hours of treatment
  motility of POM2 labelled particles: came virtually to a rest
[8]; after about 1.5 hours of treatment, n=106, control ~262 nm/min
  average motility of POM2 labelled particles: 0.273 ×10⁻⁶ cm/s
[9]; 15 μM
  morphology or organization of actin (Talin-GFP): does not affect
[9]; 15 μM (printed 15 JIM)
  localization of the end binding protein 1 (EB1-GFP): induced cytoplasmic localization
[9]; two-hour treatment
  MT organization and GFP-CESA3 particle distribution (RFP-TUA5 / GFP-CESA3 seedlings): causes loss of MT organization and redistribution of GFP-CESA3 particles
[10]
  localization of PM-receptor-like kinase Theseus-GFP and secretion marker sec-GFP: neither the localization of the PM-receptor-like kinase Theseus-GFP nor the secretion marker sec-GFP were altered
  morphology of endosomes labeled by CLC2-GFP: unaltered morphology
[11]
  enhancement of colocalization of GFP-CESA3 and CFP-SYP61 compartments: ~15%
[12]
  average velocity of the GFP-CESA3 particles: 127 nm/min

## CCC(C)(CC)c1cc(NC(=O)c2c(OC)cccc2OC)on1 [isoxaben, N-[3-(1-Ethyl-1-methylpropyl)-5-isoxazolyl]-2,6-dimethyoxybenzamide, reference compound]
[1]
  hypocotyl growth response of prc1-1 mutant: showed sensitivity
[1]; ixr1-1, 4 nM isoxaben vs DMSO, p=0.2
  hypocotyl growth of ixr1-1: not reduced

Reference: patent publication US20170280718A1, “HERBICIDAL AND FUNGICIDAL COMPOSITIONS AND THEIR USES” (The Regents of the University of California, priority 2014, published 2017)
